How the values were obtained:
Integrin alpha-V/beta-3 [1] = biological target: T1, Integrin alpha-V/beta-3 (Homo sapiens, UniProt P05106+P06756); test: Inhibition of HUVEC attachment to human fibrinogen
Integrin alpha-5/beta-1 = Integrin alpha-5/beta-1 (Homo sapiens, UniProt P05556+P08648); test: Inhibition of HUVEC attachment to human fibronectin
Integrin alpha-V/beta-3 [2] = biological target: T1, Integrin alpha-V/beta-3; test: Inhibition of HUVEC attachment to human vitronectin

T1 sequence (P05106 27-788 limits assumed): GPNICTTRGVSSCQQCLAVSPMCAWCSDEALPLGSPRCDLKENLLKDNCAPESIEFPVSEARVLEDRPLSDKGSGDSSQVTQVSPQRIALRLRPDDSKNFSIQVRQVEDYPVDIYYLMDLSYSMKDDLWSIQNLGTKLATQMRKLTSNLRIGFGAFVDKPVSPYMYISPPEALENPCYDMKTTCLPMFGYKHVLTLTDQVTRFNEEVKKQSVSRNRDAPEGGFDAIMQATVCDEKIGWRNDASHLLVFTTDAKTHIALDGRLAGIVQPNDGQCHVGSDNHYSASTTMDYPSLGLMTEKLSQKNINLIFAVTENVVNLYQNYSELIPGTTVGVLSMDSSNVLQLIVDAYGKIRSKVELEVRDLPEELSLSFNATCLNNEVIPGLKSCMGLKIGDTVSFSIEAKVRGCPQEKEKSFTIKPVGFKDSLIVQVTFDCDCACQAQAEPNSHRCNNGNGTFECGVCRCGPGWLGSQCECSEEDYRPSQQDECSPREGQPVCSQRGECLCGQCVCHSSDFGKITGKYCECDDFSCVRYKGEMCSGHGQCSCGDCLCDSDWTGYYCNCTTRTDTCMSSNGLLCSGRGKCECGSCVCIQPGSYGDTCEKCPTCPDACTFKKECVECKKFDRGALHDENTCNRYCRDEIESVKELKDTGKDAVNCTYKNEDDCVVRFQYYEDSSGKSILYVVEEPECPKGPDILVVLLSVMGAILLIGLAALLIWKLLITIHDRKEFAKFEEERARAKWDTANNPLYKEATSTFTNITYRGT
T1 sequence (P06756 31-889 limits assumed): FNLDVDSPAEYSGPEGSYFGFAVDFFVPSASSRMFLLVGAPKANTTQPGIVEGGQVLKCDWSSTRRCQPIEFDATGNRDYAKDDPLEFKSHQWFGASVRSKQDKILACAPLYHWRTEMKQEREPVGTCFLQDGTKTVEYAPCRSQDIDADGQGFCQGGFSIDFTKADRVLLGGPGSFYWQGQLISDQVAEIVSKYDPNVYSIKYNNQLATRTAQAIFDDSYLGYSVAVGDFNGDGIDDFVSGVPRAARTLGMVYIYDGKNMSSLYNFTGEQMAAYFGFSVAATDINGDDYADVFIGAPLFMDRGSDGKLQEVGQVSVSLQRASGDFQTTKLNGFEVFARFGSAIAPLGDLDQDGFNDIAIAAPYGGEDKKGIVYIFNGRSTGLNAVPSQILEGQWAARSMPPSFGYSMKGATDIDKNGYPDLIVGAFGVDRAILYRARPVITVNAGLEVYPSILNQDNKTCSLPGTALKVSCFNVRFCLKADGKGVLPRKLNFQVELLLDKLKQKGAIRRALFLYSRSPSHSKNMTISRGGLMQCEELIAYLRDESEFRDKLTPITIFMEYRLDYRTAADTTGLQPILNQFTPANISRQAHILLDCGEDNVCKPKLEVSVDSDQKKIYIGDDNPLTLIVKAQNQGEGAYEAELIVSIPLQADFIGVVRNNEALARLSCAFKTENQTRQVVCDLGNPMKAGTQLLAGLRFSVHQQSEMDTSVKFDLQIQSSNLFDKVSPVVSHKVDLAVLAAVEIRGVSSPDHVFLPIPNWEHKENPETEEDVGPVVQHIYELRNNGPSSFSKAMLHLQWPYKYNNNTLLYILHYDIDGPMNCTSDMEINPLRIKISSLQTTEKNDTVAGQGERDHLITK
T1 sequence (P06756 891-1048 limits assumed): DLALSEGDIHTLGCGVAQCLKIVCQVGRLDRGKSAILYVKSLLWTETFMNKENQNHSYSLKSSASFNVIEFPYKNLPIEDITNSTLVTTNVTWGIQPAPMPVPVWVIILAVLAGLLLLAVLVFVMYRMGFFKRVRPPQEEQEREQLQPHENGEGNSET
Sequence of Integrin alpha-5/beta-1 (P05556 21-798 limits assumed): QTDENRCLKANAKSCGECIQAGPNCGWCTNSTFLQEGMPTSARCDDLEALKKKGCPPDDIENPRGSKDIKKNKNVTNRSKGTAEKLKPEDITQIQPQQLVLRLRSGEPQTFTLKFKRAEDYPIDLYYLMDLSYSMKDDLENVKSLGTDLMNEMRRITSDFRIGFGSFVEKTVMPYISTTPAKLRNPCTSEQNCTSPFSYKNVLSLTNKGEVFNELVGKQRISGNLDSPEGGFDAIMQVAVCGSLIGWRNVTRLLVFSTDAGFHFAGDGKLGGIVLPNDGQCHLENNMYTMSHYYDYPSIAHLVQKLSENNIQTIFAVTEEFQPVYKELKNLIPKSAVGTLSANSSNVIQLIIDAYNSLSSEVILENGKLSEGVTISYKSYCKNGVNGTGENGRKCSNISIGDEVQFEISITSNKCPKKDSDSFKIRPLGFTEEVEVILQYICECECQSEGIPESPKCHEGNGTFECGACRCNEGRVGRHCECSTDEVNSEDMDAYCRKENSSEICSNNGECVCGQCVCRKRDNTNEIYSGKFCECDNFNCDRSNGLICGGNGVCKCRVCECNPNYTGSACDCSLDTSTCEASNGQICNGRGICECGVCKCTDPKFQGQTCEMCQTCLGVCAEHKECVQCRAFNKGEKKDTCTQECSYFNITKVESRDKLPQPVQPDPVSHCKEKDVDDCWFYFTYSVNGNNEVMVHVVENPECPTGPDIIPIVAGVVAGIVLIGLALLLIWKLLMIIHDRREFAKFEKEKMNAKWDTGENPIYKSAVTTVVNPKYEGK
Sequence of Integrin alpha-5/beta-1 (P08648 42-894 limits assumed): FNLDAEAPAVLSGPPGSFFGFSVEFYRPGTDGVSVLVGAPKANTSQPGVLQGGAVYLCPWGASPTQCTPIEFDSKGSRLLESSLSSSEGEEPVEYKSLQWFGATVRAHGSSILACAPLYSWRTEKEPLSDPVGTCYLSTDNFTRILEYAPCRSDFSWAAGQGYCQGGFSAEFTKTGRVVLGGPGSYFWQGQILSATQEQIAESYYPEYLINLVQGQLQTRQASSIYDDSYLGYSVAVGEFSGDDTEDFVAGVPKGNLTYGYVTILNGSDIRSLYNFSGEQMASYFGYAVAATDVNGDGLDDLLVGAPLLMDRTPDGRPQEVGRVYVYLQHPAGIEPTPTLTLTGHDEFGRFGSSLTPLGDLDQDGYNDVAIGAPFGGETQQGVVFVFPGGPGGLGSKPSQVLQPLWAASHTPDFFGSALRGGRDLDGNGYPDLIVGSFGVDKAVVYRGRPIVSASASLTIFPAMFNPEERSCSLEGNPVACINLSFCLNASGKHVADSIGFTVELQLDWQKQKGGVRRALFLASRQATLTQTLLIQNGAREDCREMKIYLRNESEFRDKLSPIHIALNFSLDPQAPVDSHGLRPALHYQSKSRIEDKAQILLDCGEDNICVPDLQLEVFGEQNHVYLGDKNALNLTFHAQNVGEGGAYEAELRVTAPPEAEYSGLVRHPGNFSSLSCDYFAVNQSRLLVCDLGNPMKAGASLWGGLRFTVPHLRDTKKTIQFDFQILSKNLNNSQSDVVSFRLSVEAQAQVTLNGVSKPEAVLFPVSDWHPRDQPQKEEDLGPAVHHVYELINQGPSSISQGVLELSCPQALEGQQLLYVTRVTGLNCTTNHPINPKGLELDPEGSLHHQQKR
Sequence of Integrin alpha-5/beta-1 (P08648 895-1049 limits assumed): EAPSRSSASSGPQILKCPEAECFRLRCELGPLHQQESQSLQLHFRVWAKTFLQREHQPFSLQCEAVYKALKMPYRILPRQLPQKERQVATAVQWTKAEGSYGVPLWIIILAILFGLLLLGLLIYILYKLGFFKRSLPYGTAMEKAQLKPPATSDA

IC50 (Integrin alpha-V/beta-3 [1]): 260 µM | IC50 (Integrin alpha-5/beta-1): > 300 µM | IC50 (Integrin alpha-V/beta-3 [2]): 100 µM
Structure (SMILES): CCCCS(=O)(=O)N[C@@H](Cc1ccc(OCCCCC2CCNCC2)cc1)C(=O)O [TIROFIBAN]
